In one data set the test system is P.falciparum. Put plainly: In vitro activity against P.falciparum: inhibition of 3H-adenosine/3H-hypoxanthine incorporation (modified Desjardins). Format: cell-based. The conditions noted are these: naphthoquinone alone. As to the method: Each of the two compounds to be tested were dissolved in ethanol at a concentration of 10 mg/L and serially diluted with RPMI 1640 medium and 10% (v/v) human plasma in microtitration plates. P.falciparum-parasitised and fresh blood cells were added together with ^3 H-adenosine or ^3 H-hypoxanthinein RPMI 1640 medium and 10% human plasma. The cultures were then incubated at 37° C. for 43 hours, harvested and the particulate contents collected on glass fibre filter papers which were washed copiously with water using a Cooke Microtiter System (Dynatech Labs. Europe); the filter papers were dried and the radioactivity measured using a scintillation counter. Infected, untreated and uninfected cultures were included as controls. Percent inhibition was correlated with dose to provide an IC50 for each drug alone.
For subsequent combination experiments the individual drug solutions and mixtures thereof were serially diluted.
By the method of Example 1 the effect of a number of naphthoquinone/clopidol (4-pyridinol) combinations on P.falciparum in vitro were determined.

A short description of a further data set: in vivo. The conditions noted are these: rat, acute oral, rats. As to the method:
The acute oral LD50 's of compounds of formula (I) in rats were determined by standard techniques.

Molecules are shown by their SMILES. A value given as a limit tells only on which side of the number the result lay.

This is an account of results in US5053418A, “Antiprotozoal agents” (Burroughs Wellcome Co., priority 1983, dated 1991).

Consider `CC(C)(C)C1CCC(C2=C(O)C(=O)c3ccccc3C2=O)CC1` (stereo not shown) [2-(4-t-butylcyclohexyl)-3-hydroxy-1,4-naphthoquinone], for which the inhibition at 15.6 pg/mL with P.falciparum (Plasmodium falciparum, 0.0000156 mg/L) came out at 0.5%. For the same compound, in the data set on P.falciparum (Plasmodium falciparum, 0.0000325 mg/L), the inhibition at 32.5 pg/mL was 2%. Besides, the “% inhibition” value in the data set on P.falciparum (0.00003125 mg/L) amounted to 5%. The same compound showed an LD50 in the data set “in vivo” of over 1000 mg/kg.
